Measurements: ChEMBL document CHEMBL1201862, “PubChem BioAssay data set” (2004)
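Each compound was tested at five concentrations against cells in 96-well plates for 48 hours. At the GI50, growth is halved.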 Calls of active or inactive are those of the source. No stated cut-off is given here; in the data, active = GI50 up to about 1.1 µM and inactive = higher.

What was measured:
Assay in all cases: inhibition of tumour cell growth, NCI panel, 48 h
PC-3 = test system: PC-3
OVCAR-8 = test system: OVCAR-8
T47D = test system: T47D
MDA-MB-435 = test system: MDA-MB-435
MCF7 = test system: MCF7
BT-549 = test system: BT-549
NCI-H226 = test system: NCI-H226
SK-MEL-5 = test system: SK-MEL-5
A498 = test system: A498
ACHN = test system: ACHN
HOP-62 = test system: HOP-62
LOX IMVI = test system: LOX IMVI
MOLT-4 = test system: MOLT-4
MDA-N = test system: MDA-N
CCRF-CEM = test system: CCRF-CEM

`CC#CS(=O)(=O)c1ccccc1` was tested, and the GI50 (PC-3) was 12.1 µM (inactive), the GI50 (OVCAR-8) was 3.02 µM (inactive) and the GI50 (T47D) was 2.33 µM (inactive). The GI50 (MDA-MB-435) was 10.9 µM (inactive), the GI50 (MCF7) was 6.87 µM (inactive) and the GI50 (BT-549) was 8.45 µM (inactive). The GI50 (NCI-H226) was 9.91 µM (inactive), the GI50 (SK-MEL-5) was 2.81 µM (inactive) and the GI50 (A498) was 15.4 µM (inactive). For the same molecule, the GI50 (ACHN) was 3.57 µM (inactive), the GI50 (HOP-62) was 21.7 µM (inactive) and the GI50 (LOX IMVI) was 5.45 µM (inactive). For the same molecule, the GI50 (MOLT-4) was 0.253 µM (active).

For `COC(=O)c1cc(NC2OCC(OC(C)=O)C(OC(C)=O)C2OC(C)=O)nc(SC)c1C(=O)OC` (stereo not drawn), the GI50 (MDA-N) was > 100 µM (inactive), the GI50 (PC-3) was > 100 µM (inactive) and the GI50 (OVCAR-8) was > 100 µM (inactive). For the same molecule, the GI50 (T47D) was > 100 µM (inactive), the GI50 (MDA-MB-435) was > 100 µM (inactive) and the GI50 (MCF7) was > 100 µM (inactive). The GI50 (BT-549) was > 100 µM (inactive), the GI50 (SK-MEL-5) was > 100 µM (inactive) and the GI50 (ACHN) was > 100 µM (inactive). The GI50 (HOP-62) was > 100 µM (inactive), the GI50 (CCRF-CEM) was > 100 µM (inactive) and the GI50 (LOX IMVI) was > 100 µM (inactive). For the same molecule, the GI50 (MOLT-4) was > 100 µM (inactive).

For `CC1=C(C)[C@@]2(C)O[C@@]2(C)O[C@@]2(C)O[C@@]12C`, the GI50 (MDA-N) was > 100 µM (inactive), the GI50 (PC-3) was > 100 µM (inactive) and the GI50 (OVCAR-8) was > 100 µM (inactive). For the same molecule, the GI50 (T47D) was > 100 µM (inactive), the GI50 (MDA-MB-435) was > 100 µM (inactive) and the GI50 (MCF7) was > 100 µM (inactive). For the same molecule, the GI50 (BT-549) was > 100 µM (inactive), the GI50 (NCI-H226) was > 100 µM (inactive) and the GI50 (SK-MEL-5) was > 100 µM (inactive). For the same molecule, the GI50 (A498) was > 100 µM (inactive), the GI50 (ACHN) was > 100 µM (inactive) and the GI50 (HOP-62) was > 100 µM (inactive). For the same molecule, the GI50 (LOX IMVI) was > 100 µM (inactive).

For `CC1CCC2N(C1)CC1C3(O)CC45OC6(O)C(O)CCC4(C)C6CCC5C3(O)CC(O)C1(O)C2(C)O` (stereo not drawn), the GI50 (MDA-N) was > 100 µM (inactive), the GI50 (PC-3) was > 100 µM (inactive) and the GI50 (OVCAR-8) was > 100 µM (inactive). The GI50 (T47D) was > 100 µM (inactive), the GI50 (MDA-MB-435) was > 100 µM (inactive) and the GI50 (MCF7) was > 100 µM (inactive). The GI50 (BT-549) was > 100 µM (inactive), the GI50 (NCI-H226) was > 100 µM (inactive) and the GI50 (SK-MEL-5) was > 100 µM (inactive). The GI50 (A498) was > 77.6 µM (inactive), the GI50 (ACHN) was > 100 µM (inactive) and the GI50 (HOP-62) was > 100 µM (inactive). For the same molecule, the GI50 (CCRF-CEM) was > 100 µM (inactive), the GI50 (LOX IMVI) was > 100 µM (inactive) and the GI50 (MOLT-4) was > 100 µM (inactive).

For `Cc1cc(S(=O)(=O)Nc2nc(Nc3ccccc3)n[nH]2)c(SSc2cc(Cl)c(C)cc2S(=O)(=O)Nc2nc(Nc3ccccc3)n[nH]2)cc1Cl`, the GI50 (MDA-N) was > 100 µM (inactive), the GI50 (PC-3) was > 100 µM (inactive) and the GI50 (OVCAR-8) was > 100 µM (inactive). The GI50 (T47D) was 67.5 µM (inactive), the GI50 (MDA-MB-435) was > 100 µM (inactive) and the GI50 (MCF7) was > 10 µM (inactive). For the same molecule, the GI50 (BT-549) was > 100 µM (inactive), the GI50 (SK-MEL-5) was > 100 µM (inactive) and the GI50 (ACHN) was > 100 µM (inactive). For the same molecule, the GI50 (HOP-62) was > 100 µM (inactive), the GI50 (CCRF-CEM) was 43.8 µM (inactive) and the GI50 (LOX IMVI) was > 100 µM (inactive). The GI50 (MOLT-4) was 35.7 µM (inactive).

With `COC(=S)OC1CC(n2cnc3c(N)ncnc32)OC1CO[Si](C)(C)C(C)(C)C` (stereo not drawn) the GI50 (MDA-N) was 18.5 µM (inactive), the GI50 (PC-3) was 12.1 µM (inactive) and the GI50 (OVCAR-8) was 24.3 µM (inactive). The GI50 (T47D) was 11.8 µM (inactive), the GI50 (MDA-MB-435) was 17 µM (inactive) and the GI50 (MCF7) was 19.1 µM (inactive). The GI50 (BT-549) was 21.9 µM (inactive), the GI50 (NCI-H226) was 21.8 µM (inactive) and the GI50 (A498) was 22 µM (inactive). The GI50 (HOP-62) was 16 µM (inactive), the GI50 (CCRF-CEM) was 10.1 µM (inactive) and the GI50 (LOX IMVI) was 39.7 µM (inactive). For the same molecule, the GI50 (MOLT-4) was 5.24 µM (inactive).

With `COc1nc2cccc(C(O)c3ccccc3)c2nc1-c1ccccc1` (stereo not drawn) the GI50 (MDA-N) was 1.55 µM (inactive), the GI50 (PC-3) was 4.46 µM (inactive) and the GI50 (OVCAR-8) was 8.22 µM (inactive). The GI50 (T47D) was 8.57 µM (inactive), the GI50 (MDA-MB-435) was 1.78 µM (inactive) and the GI50 (MCF7) was 4.47 µM (inactive). For the same molecule, the GI50 (BT-549) was 13.9 µM (inactive), the GI50 (NCI-H226) was 3.8 µM (inactive) and the GI50 (SK-MEL-5) was 3.56 µM (inactive). For the same molecule, the GI50 (A498) was 2.81 µM (inactive), the GI50 (ACHN) was 5.83 µM (inactive) and the GI50 (HOP-62) was 3.78 µM (inactive). For the same molecule, the GI50 (CCRF-CEM) was 3.02 µM (inactive), the GI50 (LOX IMVI) was 6.24 µM (inactive) and the GI50 (MOLT-4) was 5.11 µM (inactive).

For `COC(=O)[C@@H]1C=C[C@H](NC(C)=O)C1`, the GI50 (MDA-N) was > 100 µM (inactive), the GI50 (PC-3) was > 100 µM (inactive) and the GI50 (OVCAR-8) was > 100 µM (inactive). For the same molecule, the GI50 (T47D) was > 100 µM (inactive), the GI50 (MDA-MB-435) was > 100 µM (inactive) and the GI50 (MCF7) was > 100 µM (inactive). The GI50 (BT-549) was > 100 µM (inactive), the GI50 (NCI-H226) was > 100 µM (inactive) and the GI50 (SK-MEL-5) was > 100 µM (inactive). For the same molecule, the GI50 (A498) was > 100 µM (inactive), the GI50 (HOP-62) was > 100 µM (inactive) and the GI50 (CCRF-CEM) was > 100 µM (inactive). For the same molecule, the GI50 (LOX IMVI) was > 100 µM (inactive) and the GI50 (MOLT-4) was > 100 µM (inactive).

In the case of `COC(=O)c1ccccc1/N=C(/NC1CCCCCC1)NS(=O)(=O)c1ccc(C)cc1`, the GI50 (MDA-N) is reported as > 100 µM (inactive), the GI50 (PC-3) is reported as > 100 µM (inactive) and the GI50 (OVCAR-8) is reported as > 100 µM (inactive). For the same molecule, the GI50 (T47D) was > 100 µM (inactive), the GI50 (MDA-MB-435) was > 100 µM (inactive) and the GI50 (MCF7) was 99.1 µM (inactive). For the same molecule, the GI50 (BT-549) was > 100 µM (inactive), the GI50 (NCI-H226) was > 100 µM (inactive) and the GI50 (SK-MEL-5) was > 100 µM (inactive). For the same molecule, the GI50 (A498) was > 100 µM (inactive), the GI50 (ACHN) was > 100 µM (inactive) and the GI50 (HOP-62) was 99.3 µM (inactive). For the same molecule, the GI50 (CCRF-CEM) was > 100 µM (inactive), the GI50 (LOX IMVI) was > 100 µM (inactive) and the GI50 (MOLT-4) was > 100 µM (inactive).

In the case of `O=[N+]([O-])c1ccccc1S(=O)(=O)c1cccc2c1NCCC2`, the GI50 (MDA-N) is reported as 28.1 µM (inactive), the GI50 (PC-3) is reported as 27.9 µM (inactive) and the GI50 (OVCAR-8) is reported as 69.3 µM (inactive). For the same molecule, the GI50 (MDA-MB-435) was 27.7 µM (inactive), the GI50 (MCF7) was 38.4 µM (inactive) and the GI50 (BT-549) was 32.1 µM (inactive). For the same molecule, the GI50 (NCI-H226) was 91 µM (inactive), the GI50 (SK-MEL-5) was 19.7 µM (inactive) and the GI50 (A498) was > 100 µM (inactive). The GI50 (ACHN) was 55.8 µM (inactive), the GI50 (HOP-62) was 72.6 µM (inactive) and the GI50 (CCRF-CEM) was 28 µM (inactive). The GI50 (LOX IMVI) was 39.1 µM (inactive) and the GI50 (MOLT-4) was 21.5 µM (inactive).
